Experimental findings from US5716934A, “Eck receptor ligands” (Amgen Inc., priority 1995, dated 1998) are described below.

Data set [1] relates to granulation tissue in subcutaneously implanted wound chambers. Kind of data set: Rat wound chamber assay (granulation tissue formation). The data set is classed as in vivo. To be noted: for DNA / HYDROXY-PROLINE / TOTAL GYLCOSAMINO-GLYCANS / TOTAL PROTEIN / WET WEIGHT: harvest day 12, mean ± SEM; for increase in hydroxyproline: not statistically significant. As to the method:
Male Sprague-Dawley specific pathogen free rats (300-350 g; Charles River Breeding Laboratories, Inc.) were used for this study. Rats were anesthetized with sodium pentobarbital (50 mg/kg body weight) by intraperitoneal injection. Using aseptic surgical technique, a 3 cm midline incision was made on the dorsal surface of the rat. A single pocket was formed under the panniculus carnosis by blunt dissection on one side of the animal. A 3 cm long×1 cm diameter sterile stainless steel wire mesh cylinder was then inserted subcutaneously. The wound chambers used were similar to those described by Schilling et. al. (Surgery 46, 702-710 (1959)) and utilized by Hunt et. al. (Am. J. Surg. 114, 302-307 (1967)) as wound healing models. The incision was closed with wound clips. The rats survived the operation well with no evidence of postoperative discomfort. Beginning 3 days after wound chamber implantation, the rats were randomly divided into 5 groups. At this time daily injections of 1) 10 μg CHO-derived EBP, 2) 1 μg CHO-derived EBP, 3) 8 μg E. coli derived EBP, 4) 5 μg recombinant platelet derived growth factor (PDGF), or 5) 0.1 ml sterile PBS and 1 mM CHAPS were begun and continued for a total of 9 days. The injections were made directly into the wound chamber through a silicone septum at the outer edge of the chamber. Twelve days after chamber implantation, the rats were sacrificed by CO2 asphyxiation. Immediately after sacrifice, the chambers were removed surgically and carefully opened. The enclosed granulation tissue was then weighed, and stored at -70° C. for future processing.
Granulation tissue samples were thawed and homogenized with a Polytron homogenizer in 2 ml of ice-cold distilled water for approximately 1 minute. Next, 2 ml of ice-cold 10% trichloroacetic acid was added to the homogenate and incubated at 4° C. for 1 hour. The TCA-precipitated samples were centrifuged (500 g, 10 minutes) at 4° C., washed once with 2 ml of ice-cold 5% TCA, and finally washed with 2 ml of ice-cold 95% ethanol containing 50 mM sodium acetate. Samples were defatted twice with 2 ml of ethanol:ether (3:1, v/v) at 20° C. After each defatting procedure, samples were centrifuged (500×g, 10 minutes) and the supernate discarded. The pellet was then dissolved in 1N sodium hydroxide and brought up to a volume of 10 ml.
Total protein was determined by taking an aliquot of the solubilized granulation tissue and assaying the sample according to the method of Bradford (Anal. Biochem. 72, 248-251 (1976)) Bovine serum albumin (Sigma Chemical Co., St. Louis, Mo.) was used for a protein standard curve.
Total DNA content was determined as deoxy-ribose by the colorimetric method of Burton (Biochem. J. 62, 315 (1956)). Briefly, a 1 ml aliquot of the solubilized sample (in 1N NaOH) was neutralized with the addition of 0.5 ml of 2N HCl. A 1 ml aliquot of the neutralized solution was extracted in 10% perchloric acid at 90° C. for 15 minutes. A 1 ml portion of the final extract was added to 2 ml activated diphenylamine (Sigma Chemical, St. Louis, Mo.) reagent and absorbance at 600 nm was measured after overnight incubation at room temperature. Hydrolyzed calf thymus DNA (Sigma) was used to construct the standard curve. The DNA content was measured as a rough index of the number of cells in the wound chamber, with the realization that cell type and cell cycle status also influence DNA content.
Total glycosaminoglycans (GAGs) were determined using chondroitin sulfate as a standard. A spectrophotometric assay for GAGs was run utilizing a change in absorption spectrum of the dye 1,9- dimethyl methylene blue (Farndale et al. Conn. Tiss. Res. 9, 247-248 (1982)).
Total collagen content was determined as hydroxyproline (an index of collagen content) after hydrolysis of the solubilized granulation tissue in 6N HCl at 110° C. for 24 hours. […]

Data set [2] has as its system immobilized soluble extracellular domain of eck. Description: Stability of eck binding activity of formulated EBP (BIAcore). The data set is classed as physicochemical, human. The conditions noted are these: diluted into PBS to 100 μg/ml, 2 hours at 3° C., no detergent. As to the method:
FIG. 7. Binding of CHO-derived EBP in various detergent formulations to immobilized eck receptor as measured by BIAcore. Purified EBP was diluted to 100 μg/ml in PBS in the presence or absence of detergent and incubated for 2 hrs. at 3° C. Protein samples were diluted to the concentrations indicated in the figure and tested for eck receptor binding.
Measuring the ability of EBP to bind to the immobilized soluble extracellular domain of eck using BIAcore, it was determined that dilute solutions of purified EBP rapidly lost the ability to bind to the eck receptor unless formulated with a protective agent such as a detergent. Recombinant CHO EBP diluted into PBS to 100 μg/ml and incubated for 2 hours at […] lost approximately 50% of its eck binding activity. […] (see FIG. 7).

[3] abbreviates: 1 μg per chamber per day x 9 days.
Setting [4] is: 1 μg per chamber per day x 9 days, listed as CHO-derived rEBP.
[5] abbreviates: 10 μg per chamber per day x 9 days.
The mark [6] stands for this setting: 10 μg per chamber per day x 9 days, listed as CHO-derived rEBP.

For “CHO-EBP: recombinant EBP purified from supernatants of CHO cells transfected with the EBP gene; mainly EBP^1-150 and EBP^1-159”, in data set [1] (setting [3]), the DNA was 232 ± 41 µg, the HYDROXY-PROLINE is 318.7 ± 31.7 µg, the “TOTAL GYLCOSAMINO-GLYCANS” value stood at 589.2 ± 68.4 µg and the “TOTAL PROTEIN” value is reported as 3.88 ± 0.44 mg. In data set [1] (setting [3]), the “WET WEIGHT” value worked out at 238.0 ± 24.1 mg. In addition, in data set [1] (setting [4]), the DNA entry is “no significant differences”, the HYDROXY-PROLINE entry was “no significant differences”, the “TOTAL GYLCOSAMINO-GLYCANS” value was “significant increase” and the “TOTAL PROTEIN” value is on record as “no significant differences”. In addition, the “WET WEIGHT” value in data set [1] (setting [4]) is listed as “significant increase”. Also, the increase in hydroxyproline in data set [1] (1 μg/chamber/day) came to 21%. Also, in data set [1] (setting [5]), the DNA is 650 ± 163 µg, the HYDROXY-PROLINE was 354.5 ± 63.7 µg, the “TOTAL GYLCOSAMINO-GLYCANS” value was found to be 627.9 ± 92.4 µg and the “TOTAL PROTEIN” value came to 7.15 ± 1.23 mg. Further, the “WET WEIGHT” value in data set [1] (setting [5]) was found to be 398.2 ± 70.9 mg. Further, in data set [1] (setting [6]), the DNA result was “significantly increased”, the “TOTAL GYLCOSAMINO-GLYCANS” value is reported as “significantly increased”, the “TOTAL PROTEIN” value was “significantly increased” and the “WET WEIGHT” value is reported as “significantly increased”. The substance further registered an increase in hydroxyproline in data set [1] (10 μg/chamber/day) of 35%. Besides, in data set [2], the “loss of eck binding activity” value was “approximately 50%”.
